Data taken from US12215133B2 (BrightGene Bio-Medical Technology Co., Ltd., priority 2021, dated 2025).
Like-named read-outs stand apart in the source and are kept apart here. Marks after values point to notes of the source that are not given here.

Test system: C57BL/6 mouse model having STZ-HFD feed-induced diabetes combined NASH
Assay type: in vivo
Conditions: STZ+HFD C57BL/6 mice; for Fasting blood glucose / Ballooning lesion (score) / Inflammatory cell infiltration (score) / Steatosis (score) / Total score of NAS / Fibrosis percentage / % HbAC (glycosylated hemoglobin) / ALT / AST / HDL-c / LDL-c / TC / TG / Percentage of decrease in % HbAC: Mean ± SEM; for Ballooning lesion (score) / Inflammatory cell infiltration (score) / Steatosis (score) / Total score of NAS / Fibrosis percentage / % HbAC (glycosylated hemoglobin) / ALT / AST / HDL-c / LDL-c / TC / TG: 7 weeks; for Ballooning lesion (score) / Inflammatory cell infiltration (score) / Steatosis (score) / Total score of NAS: liver H&E; for Ballooning lesion (score) / Inflammatory cell infiltration (score) / Steatosis (score): NAS criteria; for Fibrosis percentage: liver sirius red staining; for % HbAC (glycosylated hemoglobin): peripheral blood; for ALT / AST / HDL-c / LDL-c / TC / TG: serum; for HbA1c % decreased by, taking the HbA1C % of the model group as the baseline value: FIG. 20; for Percentage of decrease in % HbAC: model group as baseline; for Number of animal deaths: 13 enrolled
Method: According to the dosage regimen, a certain amount of Tirzepatide and BG128 were weighed and the vehicle (pH=7.0, 20 mM sodium citrate buffer) was added to formulated to the corresponding concentration.
• Germline: C57BL/6 • Grade: SPF level • Number and gender: 30 pregnant female mice • Supplier: Shanghai Jihui Laboratory Animal Care Co., Ltd. 1.3.2 Animal Feeding Management
Animals were kept in the barrier system, the environmental conditions in the animal room were controlled as room temperature of 20° C.-26° C. and humidity of 40%-70%, and the breeders recorded once every morning and afternoon. Free drinking and normal feeding.
Newborn male mice were subcutaneously injected with STZ (100 μg/mouse) within 48 h of birth and fed by the female mice for four weeks, then the fasting blood glucose of the male mice was determined.
10 newborn male mice were selected, without STZ injection, and fed by the female mice for four weeks. The male mice were separated into cages and fed with normal maintenance feed and used as the normal control group; other mice were fed with HFD feed for one week, the fasting blood glucose of the animals was determined, and according to the fasting blood glucose and body weight, the animals were randomly grouped into: normal control group, model group, Tirzepatide—0.15 mg/kg group, BG128—0.05 mg/kg group, BG128—0.15 mg/kg group, and BG128—0.5 mg/kg group, and see Table 12 for details.
Administration began on the first day of week 2 of HFD feed feeding, and the experiment was ended after 7 weeks of continuous administration.
Observation was performed at the start of the experiment once a day until the end of the experiment.
The animals were weighed once every three days from the time of feeding with HFD feed until the end of the experiment.
The food intake of the animals was recorded from the time of feeding with HFD feed until the end of the experiment. The remaining amount was weighed before administration each time.
The fasting blood glucose was determined using the Roche blood glucose meter after 4 weeks of breast-feeding by the female mouse (that is, before HFD feeding), before administration, and 1 week, 2 weeks, 3 weeks, 4 weeks, 5 weeks, 6 weeks and 7 weeks after administration and at the end point of experiment.
3 days after the last administration, the animals were weighed and fasted for 6 hours; all experimental animals were anesthetized by intraperitoneal injection of pentobarbital sodium, non-anticoagulated whole blood was collected through the orbital venous plexus, stood at room temperature for 30 minutes, and centrifuged at 5000 rpm for 5 minutes, the serum was separated and frozen at −80° C. for the biochemical determination; and EDTA-K2 anticoagulated whole blood was collected through the orbital venous plexus and placed on wet ice for the determination of HbA1C content.
The serum sample was taken from −80° C., and the contents of ALT, AST, TG, TC, HDL-c and LDL-c in serum and HbA1C in whole blood were determined by Hitachi 7060 automatic biochemical detector, and the content of insulin was determined by enzyme-linked immunosorbent assay kit.
The mice were dissected according to procedure. After perfusion with pre-cooled normal saline, the liver was taken, photographed, weighed, soaked in 10% formalin and fixed for pathological HE staining. Liver paraffin sections of all animals were stained with HE according to KCI pathological staining standard SOP. All the stained sections were panoramically scanned by NanoZoomer Digital Pathology (S210, Hamamaci, Japan) scanner, and then observed at different magnifications by selecting different fields of view.
The mice were dissected according to procedure. After perfusion with pre-cooled normal saline, the liver was taken, photographed, weighed, soaked in 10% formalin and fixed for pathological sirius red (SR) staining. Liver paraffin sections were stained with SR according to KCI pathological staining standard SOP.

[1] = 0.05 mg/kg s.c. once every three days
[2] = 0.15 mg/kg s.c. once every three days
[3] = 0.5 mg/kg s.c. once every three days

CNC(CCCCNC(=O)COCCOCCOCCNC(=O)COCCOCCOCCNC(=O)CCC(NC(=O)CC(=O)O)C(=O)O)C(N)=O (centres unmarked) [BG128]
Fasting blood glucose (0.05 mg/kg group, Before HFD (baseline)): 18.28 ± 1.18 mmol/L
Fasting blood glucose (0.05 mg/kg group, Before administration (baseline)): 25.59 ± 0.91 mmol/L
Ballooning lesion (score) [1]: 0.00 ± 0.00
Inflammatory cell infiltration (score) [1]: 0.91 ± 0.08ª
Steatosis (score) [1]: 0.52 ± 0.12ª
Total score of NAS [1]: 1.42 ± 0.14ª
Fibrosis percentage [1]: 1.11 ± 0.05^a %
% HbAC (glycosylated hemoglobin) [1]: 1.00 ± 0.23
ALT [1]: 73.97 ± 9.20 U/L
AST [1]: 155.44 ± 10.85 U/L
HDL-c [1]: 2.30 ± 0.09 mmol/L
LDL-c [1]: 0.56 ± 0.03^b mmol/L
TC [1]: 3.81 ± 0.15^c mmol/L
TG [1]: 1.09 ± 0.20^b mmol/L
Fasting blood glucose (0.05 mg/kg s.c. once every three days, Administration for 1 week): 15.62 ± 1.42^a mmol/L
Fasting blood glucose (0.05 mg/kg s.c. once every three days, Administration for 2 weeks): 14.13 ± 1.61^a mmol/L
Fasting blood glucose (0.05 mg/kg s.c. once every three days, Administration for 3 weeks): 16.89 ± 1.85^a mmol/L
Fasting blood glucose (0.05 mg/kg s.c. once every three days, Administration for 4 weeks): 12.89 ± 1.83^a mmol/L
Fasting blood glucose (0.05 mg/kg s.c. once every three days, Administration for 5 weeks): 18.32 ± 1.62^a mmol/L
Fasting blood glucose (0.05 mg/kg s.c. once every three days, Administration for 6 weeks): 21.82 ± 2.11^a mmol/L
Fasting blood glucose (0.05 mg/kg s.c. once every three days, Administration for 7 weeks): 18.89 ± 1.89^a mmol/L
Fasting blood glucose (0.05 mg/kg s.c. once every three days, Endpoint): 15.81 ± 1.83^a mmol/L
serum insulin concentration (0.05 mg/kg s.c. once every three days, FIG. 19): decreased
HbA1c % decreased by, taking the HbA1C % of the model group as the baseline value [1]: 0.97%
Percentage of decrease in % HbAC [1]: −0.97 ± 0.23
Fasting blood glucose (0.15 mg/kg group, Before HFD (baseline)): 17.69 ± 0.81 mmol/L
Fasting blood glucose (0.15 mg/kg group, Before administration (baseline)): 25.71 ± 0.91 mmol/L
tolerance of model animals [2]: good tolerance
Ballooning lesion (score) [2]: 0.00 ± 0.00ª
Inflammatory cell infiltration (score) [2]: 0.90 ± 0.06ª
Steatosis (score) [2]: 0.46 ± 0.13ª
Total score of NAS [2]: 1.36 ± 0.15ª
Fibrosis percentage [2]: 1.10 ± 0.04^b %
% HbAC (glycosylated hemoglobin) [2]: 1.31 ± 0.19
ALT [2]: 67.58 ± 7.73^a U/L
AST [2]: 152.48 ± 6.56^a U/L
HDL-c [2]: 1.83 ± 0.22 mmol/L
LDL-c [2]: 0.65 ± 0.10^c mmol/L
TC [2]: 3.25 ± 0.12^c mmol/L
TG [2]: 0.84 ± 0.12^b mmol/L
Fasting blood glucose (0.15 mg/kg s.c. once every three days, Administration for 1 week): 15.43 ± 1.66^a mmol/L
Fasting blood glucose (0.15 mg/kg s.c. once every three days, Administration for 2 weeks): 14.61 ± 1.45^a mmol/L
Fasting blood glucose (0.15 mg/kg s.c. once every three days, Administration for 3 weeks): 14.83 ± 1.49^a mmol/L
Fasting blood glucose (0.15 mg/kg s.c. once every three days, Administration for 4 weeks): 14.52 ± 2.09^a mmol/L
Fasting blood glucose (0.15 mg/kg s.c. once every three days, Administration for 5 weeks): 15.75 ± 1.81^a mmol/L
Fasting blood glucose (0.15 mg/kg s.c. once every three days, Administration for 6 weeks): 17.88 ± 2.05^a mmol/L
Fasting blood glucose (0.15 mg/kg s.c. once every three days, Administration for 7 weeks): 17.26 ± 1.97^a mmol/L
Fasting blood glucose (0.15 mg/kg s.c. once every three days, Endpoint): 16.85 ± 2.04^a mmol/L
serum insulin concentration (0.15 mg/kg s.c. once every three days, FIG. 19): statistically significant compared with the db/db-NDJ group
HbA1c % decreased by, taking the HbA1C % of the model group as the baseline value [2]: 0.66%
Percentage of decrease in % HbAC [2]: −0.66 ± 0.19
Fasting blood glucose (0.5 mg/kg group, Before HFD (baseline)): 18.59 ± 0.88 mmol/L
Fasting blood glucose (0.5 mg/kg group, Before administration (baseline)): 25.81 ± 1.08 mmol/L
tolerance of model animals (0.50 mg/kg s.c. once every three days): good tolerance
Ballooning lesion (score) [3]: 0.00 ± 0.00
Inflammatory cell infiltration (score) [3]: 1.03 ± 0.05ª
Steatosis (score) [3]: 0.33 ± 0.08ª
Total score of NAS [3]: 1.36 ± 0.10ª
Fibrosis percentage [3]: 1.07 ± 0.05^c %
% HbAC (glycosylated hemoglobin) [3]: 0.94 ± 0.25^a
ALT [3]: 58.46 ± 5.38^b U/L
AST [3]: 150.54 ± 6.26^a U/L
HDL-c [3]: 2.13 ± 0.13 mmol/L
LDL-c [3]: 0.62 ± 0.03^c mmol/L
TC [3]: 3.53 ± 0.09^c mmol/L
TG [3]: 0.88 ± 0.14^b mmol/L
Fasting blood glucose (0.5 mg/kg s.c. once every three days, Administration for 1 week): 11.39 ± 0.86^a mmol/L
Fasting blood glucose (0.5 mg/kg s.c. once every three days, Administration for 2 weeks): 12.82 ± 1.12^a mmol/L
Fasting blood glucose (0.5 mg/kg s.c. once every three days, Administration for 3 weeks): 13.35 ± 1.37^a mmol/L
Fasting blood glucose (0.5 mg/kg s.c. once every three days, Administration for 4 weeks): 11.39 ± 1.20^a mmol/L
Fasting blood glucose (0.5 mg/kg s.c. once every three days, Administration for 5 weeks): 12.31 ± 1.47^a mmol/L
Fasting blood glucose (0.5 mg/kg s.c. once every three days, Administration for 6 weeks): 12.17 ± 1.70^abd mmol/L
Fasting blood glucose (0.5 mg/kg s.c. once every three days, Administration for 7 weeks): 10.45 ± 1.34^acd mmol/L
Fasting blood glucose (0.5 mg/kg s.c. once every three days, Endpoint): 12.27 ± 1.61^a mmol/L
serum insulin concentration (0.5 mg/kg s.c. once every three days, FIG. 19): statistically significant compared with the db/db-NDJ group
HbA1c % decreased by, taking the HbA1C % of the model group as the baseline value [3]: 1.04%
Percentage of decrease in % HbAC [3]: −1.04 ± 0.25
Number of animal deaths (Group-3/Group-5, 0.15 mg/kg s.c. once every three days): 0
Number of animal deaths (Group-4, 0.05 mg/kg s.c. once every three days): 2 (Day 45, 51)
Number of animal deaths (Group-6, 0.5 mg/kg s.c. once every three days): 0
body weight after the first administration (Tirzepatide 0.15 mg/kg, BG128 0.05, 0.15, 0.5 mg/kg s.c., FIG. 16): positively correlated with the administration dose
food intake compared with Tirzepatide (equal dose (0.15 mg/kg s.c.), FIG. 17): lower than that of the Trizepatide administration animals in the group with the equal dose
effect on serum insulin compared with Tirzepatide (equal dose (0.15 mg/kg s.c.), FIG. 19): better than that of the Tirzepatide group at an equal dose
